Experimental data taken from patent US20250074943A1, “DLL3 BINDING PEPTIDES AND USES THEREOF” (AMGEN INC., priority 2021, published 2025).
Like-named read-outs stand apart in the source and are kept apart here. Numbered stars: 1 amine (or outer) side, 2 acyl side, 3 side chain; on linkers, the order of the positions; unused ones are H or OH. Bridge positions count the residues as written; N and C are the ends. Primed or numbered codes have the meaning given here. Peptide text beside a SMILES is read from it. I, II: the chains in the order shown. * marks the point of attachment. X8 = NC(=O)[C@H](CCCCNC(=O)CCOCCOCCOCCOCCNC(=O)CCOCCOCCOCCN(CCOCCOCCOCCC(=O)NCCOCCOCCOCCOCCC(=O)NCCCC[C@H](NC(=O)CCC(=O)NCCCOCCOCCOCCCN[*:2])C(N)=O)C(=O)CNC(=O)CCOCCOCCOCCOCCNC(=O)CCC(=O)N1Cc2ccccc2C#Cc2ccccc21)NC(=O)CCC(=O)NCCCOCCOCCOCCCN[*:1]; X15 = NC(=O)[C@H](CCCCNC(=O)CCOCCOCCOCCN(CCOCCOCCOCCC(=O)NCCCC[C@H](NC(=O)CCC(=O)NCCCOCCOCCOCCCN[*:2])C(N)=O)C(=O)CNC(=O)CCOCCOCCOCCOCCNC(=O)CCC(=O)N1Cc2ccccc2C#Cc2ccccc21)NC(=O)CCC(=O)NCCCOCCOCCOCCCN[*:1]; X1 = NC(=O)[C@H](CCCCNC(=O)CCOCCOCCOCCOCCNC(=O)CCC(=O)N1Cc2ccccc2C#Cc2ccccc21)NC(=O)CCC(=O)NCCCOCCOCCOCCCN*; K(PEG4-DBCO-FEA) = Lys whose side chain carries PEG4-DBCO conjugated to fluoroethylazide (FEA); Ttds(4) = trioxatridecan-succinamic acid (linker), O=C(CCC(=O)[*:2])NCCCOCCOCCOCCCN[*:1]; Ttds(3) = Trioxatridecan-succinamic acid linker, O=C(CCC(=O)[*:2])NCCCOCCOCCOCCCN[*:1]

How the values were obtained:
[1] = target: T1, rhDLL3-Fc (Homo sapiens, UniProt Q9NYJ7); experiment: SPR binding / off-rate screening (Biacore T200); conditions: for binding to rhDLL3-Fc, complex half-life: single point SPR
T1 construct: The recombinant DLL3 ectodomain (rhDLL3-Fc) was biotinylated; Fc
T1 sequence (Q9NYJ7 27-492 limits assumed): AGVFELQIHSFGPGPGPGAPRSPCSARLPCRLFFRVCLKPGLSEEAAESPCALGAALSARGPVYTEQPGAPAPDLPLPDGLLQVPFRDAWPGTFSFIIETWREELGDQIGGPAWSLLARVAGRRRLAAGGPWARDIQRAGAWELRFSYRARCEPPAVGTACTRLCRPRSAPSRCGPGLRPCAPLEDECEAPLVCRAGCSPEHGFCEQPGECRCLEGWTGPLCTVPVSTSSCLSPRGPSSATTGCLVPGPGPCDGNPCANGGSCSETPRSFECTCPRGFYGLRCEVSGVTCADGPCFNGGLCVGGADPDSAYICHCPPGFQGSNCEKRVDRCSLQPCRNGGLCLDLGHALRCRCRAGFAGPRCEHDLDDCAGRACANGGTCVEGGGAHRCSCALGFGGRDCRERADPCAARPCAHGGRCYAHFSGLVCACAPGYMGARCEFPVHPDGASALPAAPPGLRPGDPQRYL
Protocol: […] The recombinant DLL3 ectodomain (rhDLL3-Fc) was biotinylated using EZ-Link Sulfo-NHS-LC-LC-Biotin Kit according to the manufacturer's protocol (Pierce by Thermo Fisher Scientific). The recombinant protein was incubated with an excess of NHS-LC-LC Biotin ester, in a molar ratio of 1:3 (protein: biotin), at 25° C. for 90 min. The un-reacted biotin ester was removed by subsequent buffer exchange on 0.5 ml Zeba spin desalting columns 7K MWCO (Pierce by Thermo Fisher Scientific).
The off-rate screening of the peptides was done using a Biacore T200 instrument (Cytiva, Sweden). […] Sensorgrams were analyzed by Biacore T200 Evaluation Software 3.0 (Cytiva, Sweden): specific binding was obtained by subtracting unspecific binding to naked biosensors and a zero analyte concentration made of binding assay buffer (double referencing). […]

[2] = target: T2, recombinant DLL3 ectodomain (rhDLL3-Fc) (Homo sapiens, UniProt Q9NYJ7); experiment: Binding kinetic assay using Bio-layer interferometry (BLI); conditions: for binding mode to DLL3: peptides at 20, 4 and 0.8 μM, fit to 1:1 Langmuir binding model; for affinity: wider dose-response 10×KD to 0.1×KD
T2 construct: The recombinant DLL3 ectodomain (rhDLL3-Fc) was biotinylated; Fc
T2 sequence (Q9NYJ7 27-492 limits assumed): T1 sequence (Q9NYJ7 27-492 limits assumed)
Protocol: Binding kinetic assays were performed using Bio-layer interferometry (BLI) technology. The recombinant DLL3 ectodomain (rhDLL3-Fc) was biotinylated using EZ-Link Sulfo-NHS-LC-LC-Biotin Kit according to the manufacturer's protocol (Pierce by Thermo Fisher Scientific). The recombinant protein was incubated with an excess of NHS-LC-LC Biotin ester, in a molar ratio of 1:3 (protein: biotin), at 25° C. for 90 min. The un-reacted biotin ester was removed by subsequent buffer exchange on 0.5 ml Zeba spin desalting columns 7K MWCO (Pierce by Thermo Fisher Scientific).

[3] = Table 8, curve fitting of SPR sensorgrams, read-out: koff
[4] = Table 8, curve fitting of SPR sensorgrams, read-out: kon
[5] = Table 4, ± values from three independent experiments, read-out: RT (residence time) (converted)
[6] = range over the seven peptides, read-out: residence time

Compound | binding to rhDLL3-Fc, complex half-life [1] | residence time [2, 5] [min] | binding mode to DLL3 [2] | further results
[Ac-AETVEFWWCNGNSENWTCTW-GG-Ttds-K(PEG4-PEG3)]2-PEG4-DBCO-FEA [PepSP1582] | tight rhDLL3-Fc binders with a stable complex half-life | – | – | –
[Ac-AETVEFWWCNGNSENWTCTW-GG-Ttds-K(PEG3)]2-PEG4-DBCO-FEA (Ac-AETVEFWWCNGNSENWTCTWGG-{Ttds(4)-K(PEG3)}; not fully specified (bridges); printed as [Ac-AETVEFWWCNGNSENWTCTW-GG-Ttds-K(PEG3)]2-PEG4-DBCO-FEA; cysteine pairing not given here; also: dimer linked via PEG4-DBCO-FEA) [PepSP1581] | tight rhDLL3-Fc binders with a stable complex half-life | – | – | –
I: Ac-AETVEFWWCNGNSENWTCTWGG / II: Ac-AETVEFWWCNGNSENWTCTWGG (disulfide I:9-I:18, II:9-II:18; linker I:C-II:C via X15) [PepSP1487] | – | – | – | koff [1, 3]: 0.00042 s⁻¹; kon [1, 4]: 76000 M⁻¹ s⁻¹
[Ac-AETVEFWWCNGNSENWTCTW-GG-Ttds-K(Ttds-Ttds-PEG3)]2-PEG4-DBCO- [PepSP1583] | tight rhDLL3-Fc binders with a stable complex half-life | – | – | –
CC(C)[C@@H]1NC(=O)[C@H](CO)NC(=O)[C@@H](NC(=O)CNC(=O)[C@H](Cc2ccc(O)cc2)NC(=O)[C@H](Cc2ccccc2)NC(=O)[C@H](CCC(=O)O)NC(=O)[C@@H](NC(=O)[C@@H](NC(=O)[C@H](CCC(=O)O)NC(=O)[C@H](C)N)[C@@H](C)O)C(C)C)CSSC[C@@H](C(=O)N[C@@H](CO)C(=O)N[C@@H](Cc2c[nH]c3ccccc23)C(N)=O)NC(=O)[C@H]([C@@H](C)O)NC(=O)[C@H](Cc2c[nH]c3ccccc23)NC(=O)CNC(=O)[C@H](CC(=O)O)NC(=O)[C@H](C)NC(=O)[C@H](CC(N)=O)NC1=O [PepSP1170] (H-AETVEFYGCSVNADGWTCSW-NH2; disulfide 9-18) | – | 0.717 | dose-response saturable binding | –
CC(C)[C@H](NC(=O)[C@@H](NC(=O)[C@H](CCC(=O)O)NC(=O)[C@H](C)N)[C@@H](C)O)C(=O)N[C@@H](CCC(=O)O)C(=O)N[C@@H](Cc1ccccc1)C(=O)N[C@@H](Cc1ccc(O)cc1)C(=O)NCC(=O)N[C@H]1CSSC[C@@H](C(=O)N[C@@H](CO)C(=O)N[C@@H](Cc2c[nH]c3ccccc23)C(N)=O)NC(=O)[C@H]([C@@H](C)O)NC(=O)[C@H](Cc2ccc(O)cc2)NC(=O)[C@H](CC(=O)O)NC(=O)[C@H](CC(N)=O)NC(=O)[C@H](Cc2ccc(O)cc2)NC(=O)[C@H](CC(N)=O)NC(=O)CNC(=O)[C@H](Cc2c[nH]c3ccccc23)NC1=O [PepSP1177] (H-AETVEFYGCWGNYNDYTCSW-NH2; disulfide 9-18; N-terminus assumed) | – | 0.867 | dose-response saturable binding | –
CCCCOCCOCCOCCC(=O)CCCCCCCCCCCCCCCC(=O)CCC(=O)NCCCOCCOCCOCCCNC(=O)CCC(=O)CCCCC[C@@H](CC(=O)CCC(=O)NCCCOCCOCCOCCCNC(=O)CNC(=O)CNC(=O)[C@@H](Cc1c[nH]c2ccccc12)NC(=O)[C@H](CC(=O)[C@H]1CCCC[C@@H](CN[C@@H](Cc2c[nH]c3ccccc23)NC(=O)[C@@H](Cc2c[nH]c3ccccc23)NC(=O)[C@H](CC(=O)[C@@H](CCC(=O)O)CC(=O)[C@H](CC(=O)[C@](C)(NC(=O)[C@@H](CCC(C)=O)CC(=O)CCC(C)=O)C(C)C)C(C)C)Cc2ccccc2)C(=O)C[C@H](CC(C)=O)C(=O)NCC(=O)NC(CC(C)=O)C(=O)C[C@H](CC)C(=O)NC(CCC(C)=O)C(=O)C[C@H](CC(C)=O)C(=O)CC(Cc2c[nH]c3ccccc23)C(=O)C[C@H]([C@H](C)O)C(=O)C1)[C@H](C)O)C(C)=O (some centres unmarked) [PepSP1489] | – | – | – | koff [1, 3]: 0.00037 s⁻¹; kon [1, 4]: 110000 M⁻¹ s⁻¹
C[C@@H](O)[C@@H]1NC(=O)CNC(=O)[C@H]([C@@H](C)O)NC(=O)[C@@H](NC(=O)CNC(=O)[C@@H](N)Cc2c[nH]c3ccccc23)CSSC[C@@H](C(=O)N[C@@H](Cc2c[nH]c3ccccc23)C(=O)N[C@@H](Cc2c[nH]c3ccccc23)C(N)=O)NC(=O)[C@H]([C@@H](C)O)NC(=O)[C@H](CCC(=O)O)NC(=O)[C@H](CC(N)=O)NC(=O)CNC(=O)[C@H](Cc2c[nH]c3ccccc23)NC1=O [PepSP1213] (H-WGCTGTWGNETCWW-NH2; disulfide 3-12; N-terminus assumed) | – | 0.0227 | – | –
Ac-AETVEFWWCNGNSENWTCTW-GG-Ttds-K(PEG4-DBCO-FEA)-NH2 (Ac-AETVEFWWCNGNSENWTCTWGG-{Ttds(3)-K(PEG4-DBCO-FEA)-NH2}; cysteine pairing not given here) [PepSP1538] | tight rhDLL3-Fc binders with a stable complex half-life | – | – | –
CC(C)[C@H](NC(=O)[C@@H](NC(=O)[C@H](CCC(=O)O)NC(=O)[C@H](C)N)[C@@H](C)O)C(=O)N[C@@H](CCC(=O)O)C(=O)N[C@@H](Cc1ccccc1)C(=O)N[C@@H](Cc1c[nH]c2ccccc12)C(=O)N[C@@H](CC(=O)O)C(=O)N[C@H]1CSSC[C@@H](C(=O)N[C@H](C(=O)N[C@@H](Cc2c[nH]c3ccccc23)C(N)=O)[C@@H](C)O)NC(=O)[C@H]([C@@H](C)O)NC(=O)[C@H](Cc2c[nH]c3ccccc23)NC(=O)[C@H](CC(=O)O)NC(=O)[C@H](CC(=O)O)NC(=O)[C@H]([C@@H](C)O)NC(=O)[C@H](CC(N)=O)NC(=O)CNC(=O)[C@H](Cc2c[nH]c3ccccc23)NC1=O [PepSP1161] (H-AETVEFWDCWGNTDDWTCTW-NH2; disulfide 9-18; N-terminus assumed) | – | 1.46 | dose-response saturable binding | RT (residence time) ([2]; Table 4, ± values from three independent experiments): 87.8 ± 6 s; residence time [2, 6]: 1 to 3 min; affinity [2]: double-digit nM range
CC(=O)N[C@@H](C)C(=O)N[C@@H](CCC(=O)O)C(=O)N[C@H](C(=O)N[C@H](C(=O)N[C@@H](CCC(=O)O)C(=O)N[C@@H](Cc1ccccc1)C(=O)N[C@@H](Cc1c[nH]c2ccccc12)C(=O)N[C@@H](Cc1c[nH]c2ccccc12)C(=O)N[C@H]1CSSC[C@@H](C(=O)N[C@H](C(=O)N[C@@H](Cc2c[nH]c3ccccc23)C(=O)NCC(=O)NCC(=O)NCCCOCCOCCOCCCNC(=O)CCC(=O)N[C@@H](CCCCNC(=O)CCOCCOCCOCCOCCNC(=O)CCC(=O)N2Cc3ccccc3C#Cc3ccccc32)C(N)=O)[C@@H](C)O)NC(=O)[C@H]([C@@H](C)O)NC(=O)[C@H](Cc2c[nH]c3ccccc23)NC(=O)[C@H](CC(N)=O)NC(=O)[C@H](CCC(=O)O)NC(=O)[C@H](CO)NC(=O)[C@H](CC(N)=O)NC(=O)CNC(=O)[C@H](CC(N)=O)NC1=O)C(C)C)[C@@H](C)O [PepSP1462] (Ac-AETVEFWWCNGNSENWTCTWGG-X1; disulfide 9-18 (inferred)) | – | – | – | koff [1]: 0.0014 s⁻¹; kon [1]: 230000 M⁻¹ s⁻¹
I: Ac-AETVEFWWCNGNSENWTCTWGG / II: Ac-AETVEFWWCNGNSENWTCTWGG (disulfide I:9-I:18, II:9-II:18; linker I:C-II:C via X8) [PepSP1488] | – | – | – | koff [1, 3]: 0.00031 s⁻¹; kon [1, 4]: 120000 M⁻¹ s⁻¹
CC(C)[C@H](NC(=O)[C@@H](NC(=O)[C@H](CCC(=O)O)NC(=O)[C@H](C)N)[C@@H](C)O)C(=O)N[C@@H](CCC(=O)O)C(=O)N[C@@H](Cc1ccccc1)C(=O)N[C@@H](Cc1ccc(O)cc1)C(=O)NCC(=O)N[C@H]1CSSC[C@@H](C(=O)N[C@H](C(=O)N[C@@H](Cc2c[nH]c3ccccc23)C(N)=O)[C@@H](C)O)NC(=O)[C@H]([C@@H](C)O)NC(=O)[C@H](Cc2ccc(O)cc2)NC(=O)[C@H](CC(=O)O)NC(=O)[C@H](CC(N)=O)NC(=O)[C@H](CCCNC(=N)N)NC(=O)[C@H](CC(=O)O)NC(=O)CNC(=O)[C@H](Cc2ccc(O)cc2)NC1=O [PepSP1178] (H-AETVEFYGCYGDRNDYTCTW-NH2; disulfide 9-18; N-terminus assumed) | – | 1.27 | dose-response saturable binding | residence time [2, 6]: 1 to 3 min; affinity [2]: double-digit nM range
